What was measured:
[1] = tested on: GABA autoreceptor; experiment: Procedure 1: inhibition of potassium-evoked [3H]-GABA release from rat cerebral cortex slices; type: cell-based; settings: for GABA autoreceptor pD2 values: inhibition of 25 mM potassium-evoked [3H]-GABA release, rat cortex slices in vitro
Protocol: (§1) The following test procedures were used to measure activity at (a) GABA autoreceptors and GABAB receptors by inhibition of potassium-evoked GABA and noradrenalin release from rat cortex in vitro (Procedure 1); and (b) GABAA receptors by enhancement of [3H]-flunitrazepam binding in rat cortex in vitro (Procedure 2):
(§2) Slices (0.25 x 0.25 x 2.0 mm) of rat cerebral cortex are prepared using a McIlwain tissue chopper. The slices are incubated in Krebs-Henseleit solution containing [³H]-GABA (10⁻⁷M) and [¹⁴C]-noradrenaline (10⁻⁷M) in the presence of amino-oxyacetic acid (AOAA) (10⁻⁵M), pargyline (10⁻⁶M) and ascorbic acid (10⁻⁴M), for 20 minutes at 37°C, rinsed with 5 ml aliquots of Krebs-Henseleit solution and transferred to 10 superfusion chambers (volume 300»l). The slices are continuously superfused with Krebs-Henseleit solution (0.4 ml min⁻¹) containing AOAA (10⁻⁵M) and fractions of the superfusate collected every 4 minutes. Transmitter release is induced by 4 minute exposure to a Krebs-Henseleit solution containing 25 mM potassium (with concomitant reduction in sodium to maintain osmolarity) after 68 (S₁) and 92 (S₂) minutes of superfusion. The compound under study is added to the superfusing medium 20 minutes prior to the second potassium stimulation. The residual radioactivity in the slices at the end of the experiment together with that in the superfusate fractions is measured by liquid scintillation counting using a dual label programme for tritium and carbon-14. Calculations: The amount of radioactivity (either tritium or carbon-14) in each fraction is expressed as a percentage of the respective total radioactivity in the tissue at the start of the respective collection period. The amount of radioactivity released above basal by the increased potassium is calculated and the ratio S2/S1 obtained. The S2/S1 ratio from drug-treated slices is expressed as a percentage of the control S2/S1 ratio.

[2] = molecular target: T1, GABAB receptors (Rattus norvegicus, UniProt Q9Z0U4); experiment: Procedure 1: inhibition of potassium-evoked [14C]-noradrenaline release from rat cerebral cortex slices; type: cell-based; settings: for inhibition at 10 µM: 10^-5M, potassium-evoked noradrenaline release, rat cortex slices, failure to inhibit indicates no GABAB agonist activity
T1 construct: Slices (0.25 x 0.25 x 2.0 mm) of rat cerebral cortex; from tissue; host or cells: rat cerebral cortex slices
T1 sequence (Q9Z0U4 20-960): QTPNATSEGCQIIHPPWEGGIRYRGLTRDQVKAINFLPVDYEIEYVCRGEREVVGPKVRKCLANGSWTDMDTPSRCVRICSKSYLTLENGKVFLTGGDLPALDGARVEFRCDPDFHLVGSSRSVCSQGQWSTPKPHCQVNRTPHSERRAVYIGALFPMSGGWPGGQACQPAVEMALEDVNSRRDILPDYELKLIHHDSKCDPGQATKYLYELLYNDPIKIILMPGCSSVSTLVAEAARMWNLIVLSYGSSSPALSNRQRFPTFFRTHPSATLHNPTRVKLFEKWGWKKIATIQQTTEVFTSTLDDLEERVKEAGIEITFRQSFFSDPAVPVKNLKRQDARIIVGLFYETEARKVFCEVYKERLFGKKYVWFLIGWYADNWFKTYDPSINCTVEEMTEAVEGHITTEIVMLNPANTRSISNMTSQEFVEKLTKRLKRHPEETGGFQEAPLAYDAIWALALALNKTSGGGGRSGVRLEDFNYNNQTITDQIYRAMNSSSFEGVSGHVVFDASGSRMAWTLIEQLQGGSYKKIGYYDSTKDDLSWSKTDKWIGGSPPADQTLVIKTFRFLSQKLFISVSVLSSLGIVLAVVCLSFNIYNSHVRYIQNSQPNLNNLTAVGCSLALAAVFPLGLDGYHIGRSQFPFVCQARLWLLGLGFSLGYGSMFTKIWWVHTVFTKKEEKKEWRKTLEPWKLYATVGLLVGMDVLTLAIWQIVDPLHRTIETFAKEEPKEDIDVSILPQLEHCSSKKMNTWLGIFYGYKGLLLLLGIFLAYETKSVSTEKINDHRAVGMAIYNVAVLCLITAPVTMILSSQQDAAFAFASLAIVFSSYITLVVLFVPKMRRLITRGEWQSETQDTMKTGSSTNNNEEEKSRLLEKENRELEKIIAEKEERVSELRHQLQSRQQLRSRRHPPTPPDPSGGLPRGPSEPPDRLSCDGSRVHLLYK
T1 sequence (O88871 41-940 partner): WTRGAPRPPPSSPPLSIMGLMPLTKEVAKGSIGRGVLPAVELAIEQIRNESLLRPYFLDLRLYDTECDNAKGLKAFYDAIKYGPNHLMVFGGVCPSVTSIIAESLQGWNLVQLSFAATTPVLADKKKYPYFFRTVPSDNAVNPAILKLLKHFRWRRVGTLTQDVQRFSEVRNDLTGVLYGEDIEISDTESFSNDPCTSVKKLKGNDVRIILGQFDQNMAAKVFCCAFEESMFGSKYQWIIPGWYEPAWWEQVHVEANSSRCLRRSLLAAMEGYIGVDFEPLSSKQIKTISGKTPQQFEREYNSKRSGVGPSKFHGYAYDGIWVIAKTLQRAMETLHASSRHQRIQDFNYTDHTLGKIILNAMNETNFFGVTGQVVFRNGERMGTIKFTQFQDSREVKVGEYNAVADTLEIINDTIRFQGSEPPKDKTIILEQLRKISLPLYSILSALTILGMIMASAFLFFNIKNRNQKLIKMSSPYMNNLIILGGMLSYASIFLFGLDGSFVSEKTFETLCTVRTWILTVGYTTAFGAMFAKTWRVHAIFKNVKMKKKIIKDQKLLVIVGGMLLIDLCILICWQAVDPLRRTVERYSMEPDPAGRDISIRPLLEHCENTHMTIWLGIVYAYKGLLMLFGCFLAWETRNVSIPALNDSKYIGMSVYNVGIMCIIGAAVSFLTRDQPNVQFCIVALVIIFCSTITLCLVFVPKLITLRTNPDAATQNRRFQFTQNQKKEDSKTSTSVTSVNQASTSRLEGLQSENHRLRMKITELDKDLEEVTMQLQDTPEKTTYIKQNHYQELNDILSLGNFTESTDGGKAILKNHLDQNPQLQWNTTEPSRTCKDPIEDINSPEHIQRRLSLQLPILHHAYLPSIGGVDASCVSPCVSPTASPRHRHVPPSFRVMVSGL
Protocol: as §1
as §2, with “ratio. For compounds achieving inhibition of 30% or more pD₂ values are calculated from plots of inhibition of release versus concentration of drug.” for “ratio.”

[3] = tested on: GABAA receptors; experiment: Procedure 2: enhancement of [3H]-flunitrazepam binding in rat cortex membranes; settings: for Enhancement of [3H]-flunitrazepam binding: 20nM [3H]-flunitrazepam, rat cortex membranes, 30 minutes at 37°C
Protocol: as §1
Cortices from six or more rats are excised and homogenised in 50 volumes (volume/weight) 50mM Tris buffer (pH 7.4 at 37°C) using a Polytron homogeniser on speed 5 for 30 seconds. Tissue is kept at O°C throughout the procedure. The homogenate is centrifuged at 40,000 x g for 15 minutes and the pellet resuspended (Polytron 5, 10 sec.) in 50 volumes (original weight) of Tris buffer. Centrifugation and resuspension is repeated followed by incubation at 37°C for 10 minutes. The homogenate is centrifuged (40,000 x g, 15 min), resuspended in 10 volumes (original weight) Tris and stored below -20°C for more than 24 hours.
On the day of the experiment, membranes are thawed at 37°C and made up to 20 volumes (original weight) with Tris Krebs (20mM, see below). The membranes are homogenised (Polytron 5, 30 sec), incubated at 37°C for 15 minutes and centrifuged at 20,000 x g for 10 minutes. This wash and resuspension is repeated two more times with the final pellet resuspended in 100 volumes (original weight) Tris Krebs ready for use.
The test compound (50»l) and 20nM (final concentration) [³H]-flunitrazepam (50»l) are dispensed in triplicate. The reaction is started by the addition of 900»l of membrane preparation. After a 30 minute incubation at 37°C the reaction is stopped by filtration through Whatman GF/B filters under reduced pressure using a Brandell Cell Harvester, with two 7.5 ml filter washings. The radioactivity retained on the filters is measured by liquid scintillation counting. Tris Krebs composition: NaCl-136mM, KCl-5mM, MgSO₄-2mM, KH₂PO₄-2mM, CaCl₂-2mM, Tris buffer (pH 7.4 at 37°C)-20mM, ascorbic acid-lmM, disodium ethylenediamine tetraacetic acid-lmM.
Calculations: Results are calculated as follows: [formula]

[4] = tested on: GABA autoreceptor; experiment: Procedure 3: effect on a GABA synapse in vivo, caudate-evoked synaptic inhibition of nigral neurones, iontophoretic ejection; parameters: species or system rat; settings: anaesthetized male albino rats; ejected iontophoretically in the vicinity of nigral neurones; action reversible
Protocol: The compounds were also tested for their effect on a GABA synapse in vivo in the following procedure:
(§3) Experiments were performed on male albino rats (240-280g) lightly anaesthetized with urethane (1.2-1.4 g/kg i.p.) or Halothane (0.7-1.0% in 0₂). The animal's temperature was maintained between 36-38°C via a thermostatically controlled heating blanket.
(§4) The caudate nucleus and substantia nigra were approached dorsally after exposing the overlying cortex. Pulsations of the brain and cerebral oedema were minimised by allowing cerebral spinal fluid to leak from a cisternal puncture. The exposed cortex was bathed in warm liquid paraffin throughout the experiment. A coaxial bipolar stimulating electrode (tip separation 0.25mm) was positioned stereotaxically in the caudate nucleus such that the tip of the electrode corresponded to the area delineated by the co-ordinates L 2.5; A 8.5-95; D 5. (Paxinos and Watson 1986). […]
(§5) Extracellular recordings were obtained from single neurones in the ipsilateral substantia nigra via either the centre barrel (3.5M NaCl) of a multibarrelled microelectrode or a single barrelled electrode (3.5M NaCl), attached to but protruding 10-20 » beyond, a multibarrelled electrode. […] Effects of agonist drugs on the GABA autoreceptor could be measured as an attenuation of the synaptic inhibition evoked by stimulation of the caudate. […]

[5] = tested on: postsynaptic GABAA receptors; experiment: Procedure 3: drug ejected onto nigral neurones in vivo, test of postsynaptic GABAA receptor effect; parameters: species or system rat; settings: anaesthetized male albino rats; ejected iontophoretically in the vicinity of nigral neurones
Protocol: as §3, §4, §5

## COc1ccc(CN(CCCC(N)=O)Cc2ccc(OC)cc2)cc1 [Example 12, 4-[N,N-Bis-(4-Methoxybenzyl)amino]butyramide]
[1]
  GABA autoreceptor pD2 values: 6.0
[2]
  inhibition at 10 µM: 0%
[3]
  Enhancement of [3H]-flunitrazepam binding: 0

## NC(=O)CCC/N=C(\c1ccc(Cl)cc1)c1cc(F)ccc1O [Progabide, reference compound]
[1]; in vitro
  activity at the GABA autoreceptor: active

## O=C(O)CCCN(Cc1ccccc1)Cc1ccccc1 [Example 5, 4-(N,N-Dibenzylamino)butyric acid]
[1]
  GABA autoreceptor pD2 values: 7.1
[2]
  inhibition at 10 µM: 20%
[3]
  Enhancement of [3H]-flunitrazepam binding: 0
[4]
  synaptically-evoked, GABA-mediated inhibition in the substantia nigra: almost abolished
[5]
  effect on postsynaptic GABAA receptors: without affecting

## NC(=O)CCCN(Cc1ccccc1)Cc1ccccc1 [Example 4, 4-(N,N-Dibenzylamino)butyramide]
[1]
  GABA autoreceptor pD2 values: 7.0
[2]
  inhibition at 10 µM: > 20%
[3]
  Enhancement of [3H]-flunitrazepam binding: 0

## Cc1ccc(CN(CCCC(=O)O)Cc2ccc(C)cc2)cc1 [Example 8, 4-[N,N-Bis-(4-methylbenzyl)amino]butyric acid]
[1]
  GABA autoreceptor pD2 values: 7.4
[2]
  inhibition at 10 µM: 10%
[3]
  Enhancement of [3H]-flunitrazepam binding: 0

## NC(=O)CCCN(Cc1ccc(Cl)cc1)Cc1ccc(Cl)cc1 [Example 3, 4-[N,N-Bis-(4-chlorobenzyl)amino]butyramide]
[1]
  GABA autoreceptor pD2 values: 6.6
[2]
  inhibition at 10 µM: 0%
[3]
  Enhancement of [3H]-flunitrazepam binding: 0

## O=C(O)CCCN(Cc1ccc(Cl)cc1)Cc1ccc(Cl)cc1 [Example 2, 4-[N,N-Bis-(4-Chlorobenzyl)amino]butyric acid]
[1]
  GABA autoreceptor pD2 values: 7.0
[2]
  inhibition at 10 µM: 0%
[3]
  Enhancement of [3H]-flunitrazepam binding: 0

## O=C(O)CCCN(Cc1ccc(Cl)c(Cl)c1)Cc1ccc(Cl)c(Cl)c1 [Example 10, 4-[N,N-Bis-(3,4-dichlorobenzyl)amino]butyric acid]
[1]
  GABA autoreceptor pD2 values: 7.5
[2]
  inhibition at 10 µM: 0%
[3]
  Enhancement of [3H]-flunitrazepam binding: 0

## CN(CCCC(N)=O)Cc1ccc(Cl)cc1 [Example 24, 4-[(N-(p-Chlorobenzyl)-N-methyl)amino]butyramide]
[1]
  GABA autoreceptor pD2 values: 7.5
[2]
  inhibition at 10 µM: 0%
[3]
  Enhancement of [3H]-flunitrazepam binding: 0

## CCCC/N=C(/c1cc(Cl)ccc1O)c1ccccc1Cl [fengabine, reference compound]
[1]
  GABA autoreceptor pD2 values: 8.0
[2]; in vitro
  activity at GABAB sites in vitro: little or no activity
[3]; in vitro
  activity at GABAA sites in vitro: little or no activity

— patent EP0345068B1, “Agonist of gamma-aminobutyric acid” (JOHN WYETH & BROTHER LIMITED, priority 1988, dated 1989)
